Values quoted from earlier work in patent US20250275973A1, “USE OF ALC1 INHIBITORS AND SYNERGY WITH PARPI” (EISBACH BIO GMBH, priority 2022, published 2025).

Tested on: GFP-tagged PARP1 and PARP2
Settings: U2OS cells treated with PARPi; background section

Row | SMILES | retention/recruitment of GFP-tagged PARP1 and PARP2 at induced DNA lesions
1 | Cn1ncnc1[C@H]1c2n[nH]c(=O)c3cc(F)cc(c23)N[C@@H]1c1ccc(F)cc1 [talazoparib] | enhanced retention
2 | C[C@]1(c2nc3c(C(N)=O)cccc3[nH]2)CCCN1 [veliparib] | overall less PARP1/PARP2 recruitment
